Results on one compound are retold here after US20110281852A1 (priority 2010, published 2011).

The subject of the experiment is GATA-3. Briefly: Real-Time RT-PCR, GATA-3 mRNA in epididymal fat of FD mice. Format: in vivo, mouse. As to the method:
RNA and protein purification and quantification from epididymal fat tissues: RNA and protein was isolated from 60 mg of epididymal fat tissues with Trizol (Invitrogen, Carlsbad, Calif., USA) following the protocol recommended by the manufacturers. RNA was dissolved in pure water and quantified at 260/280 nm, and sample integrity was checked by 1.5% agarose gel electrophoresis. Protein concentration was determined using the Micro BCA Protein Assay Kit (Fisher Scientific, Pittsburgh, Pa., USA) according to the manufacturer's instructions.
Quantitative Real-Time RT-PCR: Real-Time reverse transcriptase polymerase chain reaction (RT-PCR) analysis was used to measure mRNA expression of genes PPARγ, C/EBPα, GATA-2 and GATA-3 in the control of β-actin. Total RNA (0.8 μg) from each sample was used for a reverse transcription reaction using the TaqMan Reverse Transcription Reagents (Applied Biosystems, Foster City, Calif., USA) following the manufacturer's instructions. PCR was done using the SYBR green Master Mix (Applied Biosystems, Foster City, Calif., USA) following the manufacturer's instructions. The cycling conditions of amplification were as follows: an initial step of denaturation at 95° C. for 10 min, 40 cycles of denaturation at 95° C. for 30 s, annealing at 55° C. for 30 s, and elongation at 72° C. for 30 s. Real-Time PCR was performed using Mx3000P Real-Time Thermocyclers (Stratagene, La Jolla, Calif., USA). The relative mRNA levels of these genes were calculated by 2-delta delta CT method and normalized with control-treated groups.

Turning to `COc1ccc2cc3[n+](cc2c1OC)CCc1cc2c(cc1-3)OCO2.[Cl-]` [berberine, Berberine (Chloride Form)], the “GATA-3 mRNA expression up-regulated by” value (0.75 mg/kg/day) worked out at 3.2 fold, the “GATA-3 mRNA expression up-regulated by” value (1.5 mg/kg/day) amounted to 4.3 fold and the “GATA-3 mRNA expression up-regulated by” value (3 mg/kg/day) came to 4.8 fold.
